# Assays:
# Assay type in all cases: cell-based, human
# [1] = test system: skin test infiltrating lymphocytes; assay: Intracellular cytokine staining of T cell cultures from positive skin reaction sites
# Source text: Skin tests, based on Delayed Type Hypersensitivity reactions (DTH), can be used as a sensitive and simple method for in vivo measurement of HPV-specific cellular immune responses (Hopfl, 2000; Hopfl, 1991). The skin test preparations consisted of 8 pools of long clinical-grade synthetic peptides spanning the whole HPV 16 E6 and E7 protein and the most immunogenic regions of HPV 16 E2 protein (de Jong, 2004). These clinical grade peptides were produced in the interdivisional GMP-Facility of the LUMC. Each pool of the skin test consisted of 2 or 3 synthetic peptides, indicated by the first and last amino acid of the region in the protein covered by the peptides. Pool 1: E231-60, E246-75, Pool 2: E2301-330, E2316-345, Pool 3: E61-31, E619-50 (SEQ ID NO: 28), Pool 4: E641-65 (SEQ ID NO: 29), E655-80 (SEQ ID NO: 30), E671-95 (SEQ ID NO: 31), Pool 5: E685-109 (SEQ ID NO: 32), E691-122 (SEQ ID NO: 33), Pool 6: E6109-140 (SEQ ID NO: 34), E6127-158 (SEQ ID NO: 35), Pool 7: E71-35 (SEQ ID NO: 36), E722-56 (SEQ ID NO: 37), Pool 8: E743-77 (SEQ ID NO: 38), E764-98 (SEQ ID NO: 39). Pool 3 comprises Seq ID 5, 22 and 23. Pool 4 comprises Seq IDs 7-9. Pool 5 comprises Seq IDs 11 and 12. Pool 6 comprises Seq IDs 13, 14, 24 and 25. Pool 7 comprises Seq ID 15 and 26. Pool 8 comprises Seq IDs 16 and 17. Per peptide pool 0.05 ml of 0.2 mg/ml peptides in 16% DMSO in 20 mM isotonic phosphate buffer (10 μg/peptide) was injected intracutaneously. The pools of peptides and a negative control (dissolvent only) were injected separately at individual skin test sites of the upper arm. Skin test sites were inspected at least three times, at 72 hours and 7 days after injection (Hopfl) of the peptides and at 3 weeks following the first report of a very late skin reaction in one of the first healthy subjects. […]
# The specificity and character of the T cell cultures derived from positive skin reaction sites was tested by ICS as reported previously (de Jong, 2005). […] After incubation at 4° C., the cells were washed, fixed with 1% paraformaldehyde and analyzed by flow cytrometry (FACSscan, BD Biosciences)
# [2] = test system: HPV-specific T cell cultures; assay: Intracellular cytokine staining for IFNγ, type of T cell responding; settings: TIL culture of C265
# Experimental: (§1) Enumeration of IFNγ producing T cells as measured by intracellular cytokine staining was performed as described earlier (de Jong et al. 2005). Briefly, APC were loaded with cognate peptide or recombinant protein and incubated with T cell cultures. After 1 hour of incubation 10 μg/ml Brefeldin A (Sigma) was added and incubated overnight. Hereafter the cells were fixed with 4% paraformaldehyde (Sigma) and permeabilized with 0.1% Saponin. The samples were subsequently stained with CD4-APC, CD8-PerCP and IFNγ-PE and analyzed by flow cytometry. The minimal peptide recognized by CD8 T cells was analysed by IFNγ ELISPOT (van der Burg et al. 2001, Welters et al. 2006, de Jong et al. 2002). CD8 T cell lines were seeded in triplicate wells at a density of 2×104 on a Multiscreen 96-well plate (Millipore, Etten-Leur, The Netherlands) coated with an IFNγ catch antibody (Mabtech. Nacha, Sweden). The microcultures were stimulated with 5 μg/ml 10-mer peptides and incubated overnight. Analysis of HLA restriction of CD8 T cells was performed using 5 μg/ml 10-mer peptide pulsed PBMC or B-LCL co-cultured with equal numbers of T cells. IFNγ specific spots were stained according to the instructions of the manufacturer (Mabtech). The number of spots was analysed on a fully automated computer assisted video imaging system (BIOSYS).
# HPV-specific T cells = assay: Fine specificity with single peptides (proliferation and IFNγ production); settings: patients C265, C334, C284, C228 respectively
# Experimental: T cell cultures (25,000-50,000 cells/well) were tested on pulsed autologous monocytes or irradiated autologous EBVs for the recognition of HPV16 and 18 E6 and E7 peptides (5 μg/ml) and protein (10 μg/ml) in triplicate in a 3 day proliferation assay. After 48 hours supernatant was harvested and stored at −20° C. for cytokine analysis. During the last 16 hours of culture 0.5 μCi/well [^3H]thymidine was added to measure proliferation (van der Burg et al. 2001). Antigen specific IFNγ production was measured by ELISA as described earlier (van der Burg et al. 1999).
# Following the evaluation of HPV-specific reactivity, the 19 responding T cell lines were expanded by stimulation with cognate peptide, cytokine mix and feeder cells. Fifteen of these HPV-specific cultures could be sufficiently expanded for further analysis. The fine specificity of the HPV-specific T cells was determined in short-term stimulation assays using single peptides. Five cultures recognized 2 or more distinct peptides, whereas the other 10 cultures recognized a single peptide (FIG. 1B, Table 1). To assess the type of T cell that responded to antigenic stimulation, the T cell cultures were stimulated with their cognate peptide and protein antigens and the response was analyzed by intra-cellular IFNγ staining (FIG. 2). The majority of the TIL cultures contained HPV-specific CD4+ infiltrating T lymphocytes (n=13 patients, 13 different peptides recognized), whereas HPV-specific CD8^+ T cells infiltrating lymphocytes were found in 6 cultures. In 9 of the HPV-specific T cell lines only a CD4^+ T cell response was detected, in 4 T cell lines both CD4^+ T cells and CD8^+ T cells reacted and in 2 T cell lines only a CD8 T cells response was detected (Table 1, FIG. 2).
# [3] = test system: HPV-specific CD4+ and CD8+ T cells; assay: HLA restriction and minimal epitope (blocking antibodies, partially HLA matched APC, IFNγ ELISPOT); settings: HLA-A*0201-restricted tumor-infiltrating CD8+ T cells
# Experimental: MHC class II blocking experiments were performed as reported before using murine monoclonal antibodies against HLA-DR (B8.11.2), HLA-DQ (SPV.L3) and HLA-DP (B7/21) (van der Burg et al. 1999). Peptide-pulsed APC were incubated with anti-MHC class II antibodies for 2 hours prior to the addition of T cells.
# as §1, with “Analysis of HLA restriction of CD8 T cells was performed using 5 μg/ml 10-mer peptide pulsed PBMC or B-LCL co-cultured with equal numbers of T cells. IFNγ specific spots were stained according to the instructions of the manufacturer (Mabtech).” left out, “(BIOSYS). […]” for “(BIOSYS).”
substance,measurement,setting,value
"E6127-158: HPV16 E6 amino acids 127-158, clinical-grade long peptide (DKKQRFHNIRGRWTGRCMSCCRSSRTRRETQL; Human papillomavirus type 16)",response of CD8+ T cells isolated from the biopsy,"[1]; HD2, biopsy of pool 6",responded
"HPV16 E6 41-62: 22-mer peptide, amino acids 41-62 of HPV16 E6 (KQQLLRREVYDFAFRDLCIVYR; UniProt P03126 41-62, looked up, fragment)","type of T cell responding, intracellular IFNγ (FIG. 2)",[2],CD4^+ and CD8^+ T cell response
"HPV16 E6109-140: HPV16 E6 amino acids 109-140, clinical-grade long peptide (RCINCQKPLCPEEKQRHLDKKQRFHNIRGRWT; Human papillomavirus type 16)",response of CD8+ T cells isolated from the biopsy,"[1]; HD2, biopsy of pool 6",responded
"HPV16E6 peptide 137-158: 22-mer peptide, amino acids 137-158 of HPV16 E6 (GRWTGRCMSCCRSSRTRRETQL; UniProt P03126 137-158, looked up, fragment)","response of bulk culture to single peptide, proliferation and IFNγ production (FIG. 1B)",HPV-specific T cells,responded
HPV16E6.37-68: amino acids 37-68 of HPV16 E6 protein (CVYCKQQLLRREVYDFAFRDLCIVYRDGNPYA; Human papillomavirus type 16),"response of bulk culture to single peptide, proliferation and IFNγ production (FIG. 1B)",HPV-specific T cells,responded
same,response of CD8+ T cells isolated from the biopsy,[1]; subjects HD15 and HD16,responded
"HPV16E7 peptide 71-92: 22-mer peptide, amino acids 71-92 of HPV16 E7 (STHVDIRTLEDLLMGTLGIVCP; UniProt P03129 71-92, looked up, fragment)","response of bulk culture to single peptide, proliferation and IFNγ production (FIG. 1B)",HPV-specific T cells,responded
HPV16E7.11-19: amino acids 11-19 of HPV16 E7 protein (IVLHLEPQN; Human papillomavirus type 16),reactivity of CD8+ T cells compared with HPV16 E7.11-20,[3],stronger reactivity
HPV18E7.21-42: amino acids 21-42 of HPV18 E7 protein (IPVDLLCHEQLSDSEEENDEID; Human papillomavirus type 18),"response of bulk culture to single peptide, proliferation and IFNγ production (FIG. 1B)",HPV-specific T cells,responded

# Reference: patent publication US11458198B2, “HPV epitopes targeted by T cells infiltrating cervical malignancies for use in vaccines” (Academisch Ziekenhuis Leiden H.O.D.N. LUMC, priority 2007, dated 2022)
